Measurements taken from patent US20250090626A1, “NEW PEPTIDE AND USES THEREOF” (Neo Cremar Co., Ltd., priority 2021, published 2025).

Tests used:
Assay type in all cases: cell-based, mouse
C2C12 cells [1] = experiment: C2C12 cell proliferation (MTT method)
Method: C2C12 cells, a mouse myoblast line, were cultured in Dulbecco's Modified Eagle's Medium (DMEM)+10% fetal bovine serum (FBS)+1% penicillin/streptomycin (P/S). To validate the effect of MIF peptide, C2C12 cells (2×10^3 cells/ml) were placed in a 12 well cell culture dish and attached for 24 hours, and MIF peptide (1000 nM) was treated for 1 day to observe cell proliferation by MTT method. The medium was replaced every 2 days, and the cells were cultured at 37° C.
To validate cell proliferation, the culture medium of the cells was removed, the cells were washed with DMEM, 500 μl of MTT reagent (0.5 mg/ml) dissolved in phosphate buffered saline (PBS) was added to each well, and the cells were left at 37° C. for 1 hour. The reaction solution was removed, and 1000 μl of DMSO was added to each well. Purple formazan crystals were completely dissolved in DMSO, and the absorbance was measured at 540 nm.

C2C12 cells [2] = experiment: Myodifferentiation, Giemsa staining, root canal formation and fusion index
Method: When C2C12 cells were 70% grown, media were replaced with myodifferentiation medium added with MSTN protein (1 ng), Ac-MIF1 (1000 nM), and Ac-MIF1 (1000 nM)+MSTN protein (1 ng) from proliferation medium, followed by culture for 3 days.
When the cells grew more than 70% for differentiation of myoblasts into myocytes, they were cultured for 3 days by replacing with a differentiation medium (DMEM+2% FBS+1% P/S). The medium was replaced once daily, and the cells were cultured at 37° C.
The cell medium was removed, and the cells were washed with PBS. After washing, a methanol:PBS reagent in a 1:1 volume ratio was treated, followed by fixation for 2 minutes. Additionally, after a methanol:PBS reagent in a 2:1 volume ratio was added, fixation was followed for additional 2 minutes. After 2 minutes, 0.04% Giemsa reagent was added, and then the cells were left for 30 minutes, washed with PBS after 30 minutes, and observed under a microscope, with 3 photographs taken for each cell (300×). In the photographs taken, the number of fused nuclei in the root canal cells was counted, the number of nuclei of total cells was counted, and the number of fused nuclei was divided by the number of nuclei of the total cells to obtain the % value.

C2C12 cells [3] = experiment: Scratch experiment, degree of cell recovery; details: C2C12, 1000 nM peptide, 1 day in proliferation medium
Method: When the C2C12 cells were 100% grown, cells were scratches on the surface, treated with 1000 nM MIF1 or Ac-MIF1 peptides, and cultured for 1 day, followed by observation for a degree of cell recovery.

C2C12 cells [4] = experiment: mRNA expression of myodifferentiation and sarcopenia factors (real-time PCR); details: C2C12 myodifferentiation, peptide-treated vs untreated
Method: After adding 1 ml of TRIzol™ reagent, the cells were crushed using a sonicator. After centrifugation of the crushed sample (12,000 rpm, 10 min, 4° C.), the supernatant was transferred to a new tube, added with 200 μl of chloroform, and left at room temperature for 10 minutes. After 10 minutes, centrifugation (12,000 rpm, 10 min, 4° C.) was performed, yielded a transparent supernatant. Next, 500 μl of isopropanol was added, the mixture was left for 10 minutes, and centrifugation was performed to obtain RNA pellets. After washing by adding 70% ethanol (distilled water treated with ethanol+diethylpyrocarbonate (hereinafter referred to as DEPC)) to the RNA pellets, complete removal and drying were followed. The dried transparent RNA was added with DEPC-treated distilled water and then stored at −80° C. Total RNA volume was measured by nanodrop, and the 18s and 28s bands were detected in 1.2% agarose gel. cDNA was synthesized with 2 μg of total RNA, random hexamer primers, and reverse transcriptase (25° C.: 10 min, 37° C.: 120 min, 85° C.: 5 min).
Real-time PCR (RT-PCR) was performed for detecting gene expression. For observation of real-time gene expression, gene expression was analyzed using the Power SYBR Green PCR Master Mix, which includes fluorescent materials of SYBR green (7500 Real-time PCR system). The PCR primer was designed with Primer 3 software (http://frodo.wi.mit.edu) according to the nucleotide sequence secured from NCBI GenBank. PCR was performed 40 times at 95° C. for 10 minutes, again at 95° C. for 33 seconds, at gene primer temperature (tm) for 33 seconds, and at 72° C. for 33 seconds. Gene expression values were analyzed through the analysis of c(t) values obtained through real-time PCR analysis (fold change 2-^ΔΔCt formula). Setting the gene expression value of the untreated cells to 1, the gene expression value of the treated cells was calculated. In the analysis of gene c(t) values, normalization was conducted with the glyceraldehyde-3-phosphate dehydrogenase (GAPDH).

C2C12 cells [5] = experiment: Protein expression of myodifferentiation and sarcopenia factors (Western blot, immunocytochemistry); details: C2C12 myodifferentiation, peptide-treated vs untreated
Method: The medium of cultured C2C12 cells was removed and washed once with PBS. The washed cells were treated with 4% formaldehyde (Sigma), fixed for 15 minutes, then washed using PBS, added with 0.2% trypton X-100 (Sigma), and left for 5 minutes. After washing again using PBS, adding 1% normal goat serum, and leaving for 30 minutes, the primary antibody (MYOD, myogenin (MYOG):myosin light chain (MYL2); 1:50) was added to carry out a reaction at 4° C. for 14 hours. The antibodies were removed, washing was performed 3 times with PBS for 10 minutes, and then the cells were left with secondary antibody (Alexa Fluor 488 goat anti-Mouse & rabbit SFX kit t) for 1 hour. After 1 hour, the antibodies were removed, washing was performed with PBS for 10 minutes, the nuclei were stained with 4′,6-diamidino-2-phenylindol (DAPI), and the expression of the proteins was observed using fluorescence microscopy.
(1) The medium of cultured C2C12 cells was removed, followed by washing with PBS. After adding LIPA buffer and protease inhibitor to the washed cells, the proteins included in the supernatant were collected after centrifugation for 10 minutes at 12000 rpm. 40 μg of the extracted proteins were subjected to electrophoresis in 8 to 10% acrylamide gel and then transferred to a polyvinylidene fluoride (PVDF) membrane (Milipore). These were blocked with 3% skim milk or bovine serum albumin (BSA) at room temperature for 1 hour. Afterwards, primary antibody diluted in 1% skim milk or BSA (Pax7; 1:500, MYOD; 1:500, MYOG; 1:400, MYL2; 1:1000, MYH; 1:500, MSTN; 1:1000, β-actin; 1:1000, MuRF1; 1:400, and Atrogin; 1:1:400) was added and reacted at 4° C. for over 16 hours. After 16 hours, cells were washed three times with TBST (Tris-buffered saline with Tween 20) and reacted with secondary antibody with horseradish peroxidase (HRP) conjugated at room temperature for 1 hour. It was washed three times with TBST and developed after adding Super Signal West Pico Chemiluminescent Substrate.

Row | Substance | proliferation of cells compared to untreated cells (C2C12 cells [1]; C2C12, MSTN protein in proliferation medium, FIG. 3) | differentiation of cells compared to untreated cells (C2C12 cells [2]; C2C12, MSTN protein in differentiation medium, FIG. 3) | root canal formation compared to untreated cells (C2C12 cells [2]; C2C12, differentiation medium, 3 days) | cell proliferation, increase compared to cells without peptide treatment (C2C12 cells [1]; C2C12, peptide 1000 nM, 1 day, MTT, FIG. 4) [%] | scratch recovery degree, increase compared to untreated cells (C2C12 cells [3]) [%] | fusion index, increase compared to untreated cells (C2C12 cells [2]; C2C12, differentiation medium including peptide, 3 days) [%] | Atrogin1 mRNA expression (C2C12 cells [4]) | MSTN mRNA expression (C2C12 cells [4]) | MYH mRNA expression (C2C12 cells [4]) | MSTN protein expression (C2C12 cells [5]) | MYH protein expression (C2C12 cells [5]) | MYL2 protein expression (C2C12 cells [5]) | MYOD protein expression (C2C12 cells [5]) | MYOG protein expression (C2C12 cells [5]) | MuRF1 protein expression (C2C12 cells [5])
1 | MSTN protein: myostatin protein that inhibits the proliferation and differentiation of myoblasts [reference compound] | reduced | reduced | reduced |  |  |  |  |  |  |  |  |  |  |  | 
2 | VDFEAFWDWG [MIF1] |  |  |  | 11 | 22 | 4 | decreased | decreased | increased | increased | increased | increased | increased | increased | decreased
